The text below walks through data of patent US8207167B2, “Aryl-phenyl-sulfonamide-phenylene compounds and their use” (PIMCO 2664 Limited, priority 2008, dated 2012).

pIC50: −log10 of the molar value. Values after ≈ are worked out from the molar mass of the structure shown.

The nature of series [1]: Thermodynamic aqueous solubility in fasted state simulated intestinal fluid (FaSSIF). Type of series: physicochemical. The following applies: 25° C., 24 hours equilibration, HPLC; for solubility at 24 h: pH 6.5, thermodynamic from solid. How it is done:
(§1) Initial screening of candidate compounds was performed using in vitro assays to determine potency, metabolic stability and solubility in biologically relevant fluids. Potency was assessed using a viability assay based on the survival of the J774 macrophage cell line. Macrophages are closely related to osteoclasts and have been used previously as a model system for osteoclast survival (see, e.g., Luckman et al., 1998). Like osteoclasts, J774 macrophages are dependent on continued NFκB activation for survival, thereby providing a valuable screen for compounds with anti-inflammatory activity. Metabolic stability was measured by determining the rate of disappearance of compound in the presence of human liver microsomal preparations, as quantified by LC-MS/MS. Solubility was measured by equilibration of the compound in fasted state simulated intestinal fluid (FaSSIF) and quantified by HPLC.
Thermodynamic aqueous solubility was measured by equilibration of a number of APSAP compounds, in the solid state, with fasted state simulated intestinal fluid (FaSSIF) and quantified by HPLC. Measurement of solubility in FaSSIF provides a valuable model for the prediction of drug dissolution following oral administration.
Preparation of blank FaSSIF: NaOH pellets (174 mg), NaH2PO4.2H2O (2.235 g), and NaCl (3.093 g) were dissolved in 500 mL of water. The pH was adjusted to 6.5 using 1 M NaOH solution.
Preparation of FaSSIF: Sodium taurocholate (165 mg) was dissolved in 25 mL blank FaSSIF. 0.6 mL of a solution containing 100 mg/mL lecithin in methylene chloride was added. The methylene chloride was eliminated under vacuum at about 40° C. The vacuum was drawn for 15 minutes at 250 mbar, followed by 15 minutes at 100 mbar. […] After cooling to room temperature, the solution was then adjusted to 100 mL with blank FaSSIF.
The suspension was equilibrated at 25° C. for 24 hours, and then the pH was measured. The suspension was then filtered through a glass fibre C filter into a 96-well plate. The filtrate was then diluted by a factor of 100. Quantification was made by HPLC with reference to a standard solution of compound at approximately 0.1 mg/mL in DMSO. Different volumes of the standard, diluted and undiluted sample solutions were injected. The solubility was calculated using the peak areas determined by integration of the peak found at the same retention time as the principal peak in the standard injection. Analysis was performed on an Agilent HP1100 series system equipped with a diode array detector and using ChemStation software vB.02.01-SR1.

The nature of series [2]: Human liver microsomal stability assay. The format is in vitro ADME. The note with it: pooled human liver microsomes 0.5 mg/mL, test compound 3 μM, 45 minute incubation, NADPH; for half-life at 3 μM: both sexes, pH 7.4. How it is done: as §1
Metabolic stability of APSAP derivatives was measured by determination of the rate of compound disappearance when incubated in the presence of human liver microsomes. Liver microsomes are prepared from the endoplasmic reticulum of hepatocytes and are the primary source of the most important enzymes (cytochrome P450) involved in drug metabolism. Study of drug stability in the presence of liver microsomes is accepted as a valuable model permitting rapid prediction of in vivo drug stability.
Human liver microsomes were obtained from a commercial source. Test compounds (3 μM) were incubated with pooled liver microsomes (male and female). Samples were incubated for a 45 minute period and removed at 5 time points and test compounds were analysed by LC-MS/MS.
The final incubation volume was 25 μL. A control incubation was included for each compound tested, where 0.1 M phosphate buffer pH 7.4 was added instead of NADPH. The control compounds testosterone and 7-hydroxycoumarin were included in each experiment and all incubations were performed singularly for each compound.
Each compound was incubated for 0, 5, 15, 30, and 45 minutes. The control (minus NADPH) was incubated for 45 minutes only. The reactions were stopped by the addition of 50 μL methanol containing internal standard at the appropriate time points. The incubation plates were centrifuged at 2500 rpm for 20 minutes at 4° C. to precipitate the protein.
Following protein precipitation, the sample supernatants were combined in cassettes of up to 4 compounds and analysed using standard LC-MS/MS conditions.
From a plot of the natural logarithm of the peak area ratio (i.e., the ratio of compound peak area:internal standard peak area) against time, the gradient of the line was determined. Subsequently, half-life and intrinsic clearance were calculated using the equations below: Eliminated rate constant(k)=(−gradient). […] Intrinsic Clearance(CLint)([…])=(V×0.693)/t1/2. wherein V=Incubation volume(μL/mg microsomal protein). Pharmacokinetics Studies

For series [3], the system named is J774 macrophages. Nature of the series: Alamar Blue macrophage J774 viability assay. The note with it: 72 hours culture with compound, Alamar Blue read-out. Type of series: cell-based. As to the method: as §1
In vitro potency as anti-inflammatory agents was determined for a number of APSAP compounds by incubation with J774 macrophages and subsequent determination of cell viability.
J774 cells were plated at 10^4 cells per well in 100 μL αMEM (α Modified Eagle Medium) in 96-well plates and grown overnight. The next day, test compounds were added to the cultures, and cultures were continued for another 72 hours. At the end of the culture period, cell survival was determined using an Alamar Blue assay as previously described (see, e.g., Nociari et al., 1998).
Alamar Blue is an oxidation-reduction sensitive indicator. The dye itself is in the oxidised state, which is blue and non-fluorescent. The dye can accept electrons from reducing species, such as NADPH and FADH, to form a reduced dye species, which is red and fluorescent. Thus the transformation from oxidised form to reduced form can be measured by fluorimetric or colourimetric means. For fluorescence measurements, 530-560 nm excitation and 590 nm emission wavelengths are typically used. For colourimetric measurements, absorbance at 570 nm (reduced form) and 600 nm (oxidised form) is typically measured. A simple calculation is performed to determine the relative quantities of the two species.
A high ratio of the reducing species, NADPH and FADH, to the corresponding oxidised species, NADP and FAD, is an indicator that cells are proliferating and viable. A low ratio indicates cells that are quiescent or non-viable.
Briefly, Alamar Blue (Biosource International) was added undiluted to each well (1:10 v/v, 10 μL). The plate was incubated at 37° C. for 3-4 hours and the fluorescence was measured at 590 nm, with a 25 nm bandwidth. A high reading indicated cells with normal viability, and a low reading indicated cells that have been damaged and are no longer proliferating normally. The controls gave a high fluorescence reading, indicating a high number of live, healthy cells. A potent test compound gave a low fluorescence reading.
The average results for each test compound (n=5) were expressed as a percent (%) of the average control value.
Addition of Compounds. All of the compounds studied were made up as 100 mM solutions in DMSO. These stock solutions were then diluted 1000-10000× in culture medium (αMEM). From these 100 μM or 10 μM solutions, convenient quantities (3-33 μL) were added directly to the wells so as to give the desired final compound concentration.

The mark [4] stands for this setting: fasted state simulated intestinal fluid (FaSSIF).

As to `O=S(=O)(Nc1cccc(C(CO)N2CCOCC2)c1)c1ccc(-c2ccc(F)cc2F)cc1` (stereo not shown) [ABD792, 2′,4′-Difluoro-N-(3-(2-hydroxy-1-morpholinoethyl)phenyl)biphenyl-4-sulfonamide], the solubility at 24 h in series [1] (setting [4]) is 4400 µg/mL (≈ 9270 µM). The compound further yielded a half-life at 3 μM in series [2] of 2 min. The pIC50 in series [3] (Mus musculus) is < 4.52.

`O=S(=O)(Nc1cccc(C(O)C(F)(F)F)c1)c1ccc(-c2ccc(Cl)cc2Cl)cc1` (stereo not shown) [ABD766, 2′,4′-Dichloro-N-(3-(2,2,2-trifluoro-1-hydroxyethyl)phenyl)biphenyl-4-sulfonamide] had a solubility at 24 h in series [1] (setting [4]) of 20 µg/mL (≈ 42 µM). This compound also showed a half-life at 3 μM in series [2] of 16 min. Also, in series [3] (Mus musculus), the pIC50 is 6.15. Consider `CN(C)C(=O)c1cccc(NS(=O)(=O)c2ccc(-c3ccc(Cl)cc3Cl)cc2)c1` [ABD730, 3-(2′,4′-Dichlorobiphenyl-4-ylsulfonamido)-N,N-dimethylbenzamide], for which the concentration in solution in series [1] (setting [4]) (solubility at 24 h) was 20 µg/mL (≈ 44.5 µM). For the same compound, the half-life at 3 μM in series [2] was determined as 15 min. Compound `CNCC(O)c1cccc(NS(=O)(=O)c2ccc(-c3ccc(F)cc3F)cc2)c1` (stereo not shown) [ABD783, 2′,4′-Difluoro-N-(3-(1-hydroxy-2-(methylamino)ethyl)phenyl)biphenyl-4-sulfonamide] showed a solubility at 24 h in series [1] (setting [4]) of 370 µg/mL (≈ 884 µM). Besides, the T1/2 entry in series [2] was “Stable”. Also, the pIC50 in series [3] (Mus musculus) is 5.93.

Regarding `CN[C@@H](CO)c1cccc(NS(=O)(=O)c2ccc(-c3ccc(F)cc3F)cc2)c1` [ABD810, (R)-2′,4′-Difluoro-N-(3-(2-hydroxy-1-(methylamino)ethyl)phenyl)biphenyl-4-sulfonamide], the negative-log IC50 (pIC50) in series [3] (Mus musculus) is 5.99. On to `O=S(=O)(Nc1cccc(C2(O)CC2)c1)c1ccc(-c2ccc(Cl)cc2Cl)cc1` [ABD709, 2′,4′-Dichloro-N-(3-(1-hydroxycyclopropyl)phenyl)biphenyl-4-sulfonamide], for which the concentration in solution in series [1] (setting [4]) (solubility at 24 h) was 70 µg/mL (≈ 161 µM). For the same compound, in series [2], the half-life at 3 μM amounted to 18 min. The negative-log IC50 (pIC50) in series [3] (Mus musculus) was 6.42. The corresponding values for `CC(O)c1cccc(NS(=O)(=O)c2ccc(-c3ccc(Cl)cc3Cl)cc2)c1` (stereo not shown) [ABD708, 2′,4′-Dichloro-N-(3-(1-hydroxyethyl)phenyl)biphenyl-4-sulfonamide] are 100 µg/mL (≈ 237 µM), 6 min and 6.74. For the compound `O=C(O)c1cccc(NS(=O)(=O)c2ccc(-c3ccc(Cl)cc3Cl)cc2)c1` [ABD612, 3-(2′,4′-Dichlorobiphenyl-4-ylsulfonamido)benzoic acid, reference compound], the concentration in solution in series [1] (setting [4]) (solubility at 24 h) came to 130 µg/mL (≈ 308 µM). In addition, in series [2], the T1/2 result was “Stable”.

For `O=S(=O)(Nc1cccc(CCO)c1)c1ccc(-c2ccc(F)cc2F)cc1` [ABD628, 2′,4′-difluoro-biphenyl-4-sulfonic acid [3-(2-hydroxy-ethyl)-phenyl]-amide, reference compound], the half-life at 3 μM in series [2] was 18 min. Turning to `O=S(=O)(Nc1cccc(CCO)c1)c1ccc(-c2ccc(Br)cc2)cc1` [ABD630, reference compound], in series [1], the Solubility was 60 µg/mL (≈ 139 µM). Further, in series [2], the T1/2 amounted to 43 min. On to `CC(N)(CO)c1cccc(NS(=O)(=O)c2ccc(-c3ccc(F)cc3F)cc2)c1` (stereo not shown) [ABD862, N-(3-(2-Amino-1-hydroxypropan-2-yl)phenyl)-2′,4′-difluorobiphenyl-4-sulfonamide], for which the negative-log IC50 (pIC50) in series [3] (Mus musculus) was 5.61. For `O=S(=O)(Nc1ccc(CO)c(CO)c1)c1ccc(-c2ccc(F)cc2F)cc1` [ABD565, reference compound], in series [1], the Solubility is 30 µg/mL (≈ 74 µM). In series [2], `O=S(=O)(Nc1cccc(CCO)c1)c1ccc(-c2ccc(Cl)cc2Cl)cc1` [ABD625, reference compound] showed a T1/2 of 13 min.

`CC(=O)c1cccc(NS(=O)(=O)c2ccc(-c3ccc(Cl)cc3Cl)cc2)c1` [ABD746, N-(3-Acetylphenyl)-2′,4′-dichlorobiphenyl-4-sulfonamide, reference compound] registered a solubility at 24 h in series [1] (setting [4]) of 8 µg/mL (≈ 19 µM). Further, the half-life at 3 μM in series [2] stood at 11 min. In series [1], `Cc1c(CO)cccc1NS(=O)(=O)c1ccc(-c2ccc(F)cc2F)cc1` [ABD527, reference compound] had a Solubility of 40 µg/mL (≈ 103 µM). `O=S(=O)(Nc1cc(CO)ccc1O)c1ccc(-c2ccc(F)cc2F)cc1` [ABD585, reference compound]: in series [1], the Solubility is 70 µg/mL (≈ 179 µM). For the compound `N[C@@H](CO)c1cccc(NS(=O)(=O)c2ccc(-c3ccc(F)cc3F)cc2)c1` [ABD854, (R)—N-(3-(1-Amino-2-hydroxyethyl)phenyl)-2′,4′-difluorobiphenyl-4-sulfonamide], in series [3] (Mus musculus), the pIC50 is 5.87. With `CN(C)CC(O)c1cccc(NS(=O)(=O)c2ccc(-c3ccc(F)cc3F)cc2)c1` (stereo not shown) [ABD784, N-(3-(2-(Dimethylamino)-1-hydroxyethyl)phenyl)-2′,4′-difluorobiphenyl-4-sulfonamide], the pIC50 in series [3] (Mus musculus) is 5.84. In the case of `O=S(=O)(Nc1cccc(CO)c1)c1ccc(-c2ccc(F)cc2F)cc1` [ABD456, 2′,4′-difluoro-biphenyl-4-sulfonic acid (3-hydroxymethyl-phenyl)-amide, reference compound], the solubility at 24 h in series [1] is 50 µg/mL (≈ 133 µM). The pIC50 in series [3] (Mus musculus) was 6.60. As to `CN[C@H](CO)c1cccc(NS(=O)(=O)c2ccc(-c3ccc(F)cc3F)cc2)c1` [ABD811, (S)-2′,4′-Difluoro-N-(3-(2-hydroxy-1-(methylamino)ethyl)phenyl)biphenyl-4-sulfonamide], the pIC50 in series [3] (Mus musculus) is 6.46. As for `O=S(=O)(Nc1cccc(CO)c1)c1ccc(-c2ccc(Cl)cc2F)cc1` [ABD575, reference compound], the Solubility in series [1] was 70 µg/mL (≈ 179 µM). In addition, in series [3], the pIC50 is 6.40.
